Values after ≈ are worked out from the molar mass of the structure shown. Where two headings read alike, the source gives them in different places.
What was measured:
Test in all cases: Microbicidal activity, minimum inhibitory concentration to kill 10^6 germs per ml
Assay type in all cases: cell-based
Conditions in all cases: room temperature, 10^6 Keime pro ml, read-out: minimale Hemmkonzentration
Aspergillus niger = test system: Aspergillus niger
Protocol: (§1) Die mikrobiozide Wirkung der erfindungsgemäßen Verbindungen zeigt Tabelle I (µg Wirkstoff/ml Wasser; Kontaktzeit 24 und 48 h; Raumtemperatur). Die angegebenen Zahlen bedeuten die minimalen Hemmkonzentrationen, um die vorgelegte Keimzahl von 10^6 Keimen pro ml abzutöten.

Candida albicans = test system: Candida albicans
Protocol: as §1

Klebsiella pneumoniae = test system: Klebsiella pneumoniae
Protocol: as §1

Pseudomonas aeruginosa = test system: Pseudomonas aeruginosa
Protocol: as §1

Proteus mirabilis = test system: Proteus mirabilis
Protocol: as §1

[1] = test system: Desulfovibrio desulfuricans 39
Protocol: as §1

[2] = test system: Desulfovibrio desulfuricans 85
Protocol: as §1

Escherichia coli = test system: Escherichia coli
Protocol: as §1

Staphylococcus aureus = test system: Staphylococcus aureus
Protocol: as §1

CCCCCCCCCCN(CCCNC(=N)N)CCCNC(=N)N [Beispiel 3]
MIC (Aspergillus niger; contact time 24 h): > 1000 µg/mL | MIC (Aspergillus niger; contact time 48 h): > 1000 µg/mL | MIC (Candida albicans; contact time 24 h): 250 µg/mL (≈ 703 µM) | MIC (Candida albicans; contact time 48 h): 62.5 µg/mL (≈ 176 µM) | MIC (Klebsiella pneumoniae; contact time 24 h): 500 µg/mL (≈ 1410 µM) | MIC (Klebsiella pneumoniae; contact time 48 h): 62.5 µg/mL (≈ 176 µM) | MIC (Pseudomonas aeruginosa; contact time 24 h): 500 µg/mL (≈ 1410 µM) | MIC (Pseudomonas aeruginosa; contact time 48 h): 62.5 µg/mL (≈ 176 µM) | MIC (Proteus mirabilis; contact time 24 h): 250 µg/mL (≈ 703 µM) | MIC (Proteus mirabilis; contact time 48 h): 62.5 µg/mL (≈ 176 µM) | MIC ([1]; contact time 24 h): 15.6 µg/mL (≈ 43.9 µM) | MIC ([1]; contact time 48 h): 7.8 µg/mL (≈ 21.9 µM) | MIC ([2]; contact time 24 h): 7.8 µg/mL (≈ 21.9 µM) | MIC ([2]; contact time 48 h): 7.8 µg/mL (≈ 21.9 µM) | MIC (Escherichia coli; contact time 24 h): 250 µg/mL (≈ 703 µM) | MIC (Escherichia coli; contact time 48 h): 62.5 µg/mL (≈ 176 µM) | MIC (Staphylococcus aureus; contact time 24 h): 250 µg/mL (≈ 703 µM) | MIC (Staphylococcus aureus; contact time 48 h): 62.5 µg/mL (≈ 176 µM)

Reference: EP0114387A1, “Bis-guanidine compound salts, their preparation and microbicidal use” (HOECHST AKTIENGESELLSCHAFT, priority 1982, dated 1984)
